Experimental data reported in paper PMC12083136 (Microbiome, 2025).

System: ruminal bacterial urease
Test: urease activity
Format: biochemical

IC50: 126.8 ± 1.2 µM
SMILES: C=CCS[S+]([O-])CC=C (stereo not shown) [allicin]
